“And” between values parts separate entries of the source, which are not always exact repeats. Identical values can stand only once. “Also recorded” adds a separate entry of the source. Like-named read-outs stand apart in the source and are kept apart here.
Legend:
hERG channel = hERG channel (Homo sapiens (Human), UniProt Q12809); assay: hERG channel inhibition, whole cell patch clamp in HEK293 cells; type: cell-based; settings: for inhibition at 5 min, 10 µM: human, HEK293 cells stably expressing hERG channel, pH 7.35
Method: The assay was performed on hERG channel stably expressed in HEK293 cells. The cells were cultured at 37° C. in a humidified CO2 incubator in the growth medium consisting of DMEM, 10% fetal bovine serum and antibiotics. Prior to the assay, the cells were seeded onto a 12-mm PDL-coated glass coverslip and cultured in a 35-mm Petri dish. After 16 to 40 hours culture, the coverslip was transferred into the chamber of OctaFlow perfusion system (ALA Instrument) and under a constant flow of extracellular solution (140 mM NaCl, 4 mM KCl, 1 mM MgCl2, 2 mM CaCl2, 10 mM HEPES, 10 mM D-glucose, pH 7.35, osmolarity 290). Whole cell patch clamping was performed with a glass micropipette filled with intracellular solution (120 mM KCl, 1.75 mM MgCl2, 5.4 mM CaCl2, 10 mM HEPES, 10 mM EGTA, and 4 mM ATP-K2, pH 7.2, osmolarity 310). Giga-seal was maintained during the test. The voltage control and current measurement were carried out using Axon amplifier 700B, Digidata 1440A and CLAMPEX10 software (Molecular Devices). Whole-cell hERG currents were recorded following the Petroski protocol: the cell was held at −80 mV, and the voltage step jumped from −80 to 30 mV and stay for 2 seconds with a 20-millisecond prepulse at −40 mV. After depolarization, the voltage was decreased to −40 mV and stay for 2 seconds, and returned back to −80 mV. Test compound was applied by quartz capillary tubes tip (200 m inner diameter), and the flow rate was controlled at 2-3 mL/min with OctaFlow perfusion system. Different concentrations of the compound were applied to the cells for 5 minutes and the hERG current was measured three times before, during and after compound treatment. The data were analyzed using Clampfit 10 software (Molecular Devices) to generate IC50 values.

Sapap3 knockout mice = assay: Grooming Test in Sapap3 knockout mice; type: in vivo, mouse; settings: for tachyphylaxis with repeated weekly dosing: dosed IP on Days 1, 15, 22, 29; for acute effect on excessive self-grooming: single IP dose, Day 1
Method: (§1) Animals. The breeding conditions and genotyping methods for Sapap3 and Shank3 complete knockout mice were the same as described in Welch et al. (Nature 2007, 448(7156):894-900) and in Wang et al. (Nat. Commun. 2016, 7:11459), respectively. Homozygous knockout mice and littermate wild type mice of both genders were used at 4 to 8 weeks of age.
(§2) Compound formulation. The test compounds were dissolved in a small volume of dimethyl sulfoxide (DMSO) and diluted in an aqueous solution of 2-hydroxypropyl-beta-cyclodextrin (HP-β-CD) and administered IP. Dosing volume was 10 mL/kg. At 20 minutes after dosing, the mice were subjected to the behavioral test as described below.
(§3) Testing room and apparatus. The test room was maintained under the same conditions as the colony rooms, except the mice were housed in conventional shoe-box cages with food, water, and nesting materials. Animals were housed in the test room 48-72 hours prior to testing, in order to permit the mice to fully acclimate to the test room and conventional housing cages before testing. Tests were conducted in white polyvinyl-fluoride hard-sided foam test arenas (20×20×12 cm). The arenas were indirectly illuminated by dimmable LED light bars placed level with the arena floor and 30 cm away from the external wall of the test arena. This permitted the internal area of the arena to be evenly illuminated at approximately 40 lux. The illumination levels where the mice were housed before testing were about 80-100 lux.
(§4) Testing procedure. Mice were carefully placed into the test arenas 20 minutes after compound administration. Animals were given free exploration of the arena for 10 minutes, after which they were gently sprayed with 4 quick pumps of a water mist (total water volume approximated 1.5-1.7 mL). Mice were then allowed an additional 10 minutes to self-groom and engage in other behaviors before being removed from the arena. All tests were videotaped using cameras mounted above the testing arena and were saved to digital media format using Noldus Media Player software (Noldus Information Technologies, Leesburg, Va.). The mice were only tested once in the acute studies and were repeatedly tested in the sustained effect studies.
(§5) Quantitation of grooming bouts. Analyses of the video recordings were conducted with TopScan behavioral recognition software (Cleversys Inc, Reston, Va.). Configurations were made which scored time spent in grooming. […] These settings permitted automated scoring of grooming by TopScan that corresponded well to manual-scoring of these behaviors by a trained blinded observer using Noldus Observer XT9 (Noldus Information Technologies), with an average corrected kappa of 0.925 (range 0.807-0.983).
(§6) Statistical analyses. Data are presented as means and standard error of the means (SEMs). Analyses were conducted using SPSS 23 (IBM SPSS Statistics, Chicago, Ill.). Time spent in grooming behavior (seconds) over the 10-minute pre- and post-spray time blocks were analyzed with repeated measures analyses of variance (RMANOVA). The pre- and post-spray times were used for the within subject effects and the genotype and compound treatment condition were used as the between subject effects. In sustained effect studies, days were also used for a within subject effect. Some analyses of total groom time were performed in Prism 7.01 (GraphPad Software, La Jolla, Calif.), with one-way ANOVAs to compare genotypes on Day 1 or with RMANOVAs to compare treatment groups within the same genotype across days. Treatments with compounds were compared independently with the vehicle. All post-hoc comparisons were performed with Bonferroni corrections for multiple comparisons to avoid a Type I error. In all cases, a p<0.05 was considered significant.
Next, the effect of two subunit-selective NR2B antagonists administered as a single IP dose and assessed 20 minutes postdose was studied in the Sapap3 knockout mice (n=6-10 mice per treatment group). […]

[1] = tested on: wild type littermate mice; assay: Grooming Test in wild type littermates of Sapap3 and Shank3 complete knockout mice; type: in vivo, mouse; settings: for effect on grooming on Day 3 / effect on grooming on Day 5: 3 mg/kg IP on Day 1, wild type littermates; for effect on grooming on Day 1: 3 mg/kg IP, wild type littermates; for acute effect on grooming on Day 1: wild type littermates of Sapap3 knockout mice, dose-dependent
Method: as §1, §2, §3, §4, §5, §6
The wild type littermates of the Sapap3 knockout and Shank3 complete knockout mice were retested after Day 1 compound administration to determine whether the sustained effects were unique to the knockout mice. […]

[2] = tested on: wild type mice (male C57Bl/6); assay: Novelty Phobia Test in wild type mice; type: in vivo, mouse; settings: for change in vivo at 0.3 mg/kg / change in vivo at 1 mg/kg / change in vivo at 30 mg/kg / change in vivo at 3 mg/kg / change in vivo at 10 mg/kg: Mus musculus, ip, IP, read-out: Percent Change in Novel Object Number of Nose Touches relative to vehicle control; for pattern of the dose-response function for bouts of nose touching: mouse, in vivo
Method: Animals. Male C57Bl/6 mice (18-30 g body weight; 6-8 weeks of age) were obtained from Slaccas (Shanghai, China) and allowed to acclimate to the animal facility for 7 days. Mice were group housed in plastic cages (no more than 4 animals per cage) on wood shavings with nesting material. All animals had free access to food (M01-F, Slaccas) and water. The animal facility was maintained under artificial lighting between 7:00 AM and 7:00 PM in a controlled ambient temperature of 22-24° C. and relative humidity between 50-60%.
Compound formulation. The test compounds were prepared in a vehicle of DMSO and HP-β-CD, and administered IP or PO. The test compounds or vehicle were administered at various times (10-20 minutes) before the behavioral test described below. Dosing volume was 10 mL/kg.
Testing procedure. The behavioral testing apparatus was a rectangular black Plexiglas, 2-chambered box, with no top or bottom (50 cm long, 26 cm wide and 15 cm tall) and allowed for the simultaneous testing of 2 mice. The box was placed on a laboratory bench. The chambers of the testing box were cleaned and fresh paper chip bedding was added between tests. Mice were brought to the experiment room in their home cages on the day of testing. Behavioral tests were conducted between 10:00 AM and 1:00 PM in dim light. After drug administration, a mouse was placed into a test chamber and allowed to explore for 10 minutes. After this habituation period, a novel object (e.g., a toy ball of 3 cm in diameter with spikes) was introduced to the center of the chamber for 5 minutes. For the entire 15-minute test period, video was recorded for offline analysis with Any-maze Video Tracking software (Stoelting Co., Wood Dale, Ill.). The total distance traveled during the entire 15 minutes and the number of bouts that each mouse touched the novel object during the last 5 minutes were measured.
Statistical analyses. Data are presented as means and SEMs. Data were analyzed using one-way analysis of variance (ANOVA; Prism, GraphPad Software Inc., San Diego, Calif.), followed by the post-hoc Dunnett's test to compare test compound-treated groups with the vehicle control. A p value<0.05 was considered significant.

CYP2D6 = CYP2D6 (Homo sapiens (Human), UniProt P10635); assay: CYP P450 enzyme inhibition in pooled human liver microsomes (dextromethorphan probe); type: in vitro ADME; settings: for inhibition at 10 min, 10 µM: human, pooled human liver microsomes, pH 7.4, probe dextromethorphan, 5 μM, read-out: CYP2D6 Inhibiton at 10 μM
Method: Test compound concentration-dependent response studies were performed in triplicate.

[3] = single dose 1 mg/kg IP on Day 1

Chain of CYP2D6 (P10635 whole entry): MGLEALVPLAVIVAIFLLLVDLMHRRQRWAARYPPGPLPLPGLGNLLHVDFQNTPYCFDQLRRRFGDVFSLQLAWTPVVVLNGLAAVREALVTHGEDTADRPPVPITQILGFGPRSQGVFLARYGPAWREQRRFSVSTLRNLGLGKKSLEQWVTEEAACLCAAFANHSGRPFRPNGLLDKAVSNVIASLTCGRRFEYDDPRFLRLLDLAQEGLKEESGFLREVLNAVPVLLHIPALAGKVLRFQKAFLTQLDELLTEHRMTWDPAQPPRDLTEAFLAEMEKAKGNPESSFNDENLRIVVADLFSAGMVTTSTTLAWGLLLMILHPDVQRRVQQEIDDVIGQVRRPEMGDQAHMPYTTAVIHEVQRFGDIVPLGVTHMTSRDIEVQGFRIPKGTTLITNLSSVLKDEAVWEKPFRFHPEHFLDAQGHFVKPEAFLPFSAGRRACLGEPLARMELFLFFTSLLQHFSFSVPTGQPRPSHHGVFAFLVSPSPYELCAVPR
Chain of hERG channel (Q12809 whole entry): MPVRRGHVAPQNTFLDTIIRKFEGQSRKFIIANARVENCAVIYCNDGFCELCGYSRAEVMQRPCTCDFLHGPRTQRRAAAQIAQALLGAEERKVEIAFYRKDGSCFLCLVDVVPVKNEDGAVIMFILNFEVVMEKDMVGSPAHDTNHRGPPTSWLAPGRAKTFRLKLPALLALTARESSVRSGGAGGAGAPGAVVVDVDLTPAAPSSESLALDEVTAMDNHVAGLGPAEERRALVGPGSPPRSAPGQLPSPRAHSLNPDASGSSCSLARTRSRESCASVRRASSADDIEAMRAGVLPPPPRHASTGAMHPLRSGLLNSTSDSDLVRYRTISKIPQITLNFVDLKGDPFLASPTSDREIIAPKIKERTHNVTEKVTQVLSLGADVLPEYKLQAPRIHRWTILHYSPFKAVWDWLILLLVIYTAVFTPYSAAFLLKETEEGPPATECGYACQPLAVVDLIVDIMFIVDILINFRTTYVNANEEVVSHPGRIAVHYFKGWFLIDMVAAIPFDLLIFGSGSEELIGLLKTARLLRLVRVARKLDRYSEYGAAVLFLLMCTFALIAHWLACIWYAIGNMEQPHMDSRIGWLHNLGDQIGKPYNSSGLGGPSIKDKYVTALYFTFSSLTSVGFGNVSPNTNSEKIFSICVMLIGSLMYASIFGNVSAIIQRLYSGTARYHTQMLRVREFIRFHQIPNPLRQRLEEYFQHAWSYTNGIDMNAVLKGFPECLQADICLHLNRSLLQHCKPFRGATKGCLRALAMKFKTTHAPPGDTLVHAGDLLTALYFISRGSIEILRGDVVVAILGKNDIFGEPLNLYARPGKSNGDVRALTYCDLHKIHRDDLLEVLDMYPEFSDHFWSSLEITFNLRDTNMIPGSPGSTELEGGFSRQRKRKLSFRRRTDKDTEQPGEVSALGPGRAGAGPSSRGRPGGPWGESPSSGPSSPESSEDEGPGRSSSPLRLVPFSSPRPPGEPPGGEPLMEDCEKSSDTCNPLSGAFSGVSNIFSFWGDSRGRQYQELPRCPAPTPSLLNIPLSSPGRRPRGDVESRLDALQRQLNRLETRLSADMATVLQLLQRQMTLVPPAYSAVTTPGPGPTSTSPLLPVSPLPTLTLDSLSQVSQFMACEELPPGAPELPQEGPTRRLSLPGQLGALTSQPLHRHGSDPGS

SMILES | tachyphylaxis with repeated weekly dosing (Sapap3 knockout mice) | significantly reduced grooming through Day (Sapap3 knockout mice; first dose 3 mg/kg IP on Day 1) [days] | acute effect on excessive self-grooming (Sapap3 knockout mice; 20 min postdose) | significantly reduced grooming through Day (Sapap3 knockout mice; [3]) [days] | effect on grooming on Day 3 [1] | effect on grooming on Day 5 [1] | effect on grooming on Day 1 [1] | acute effect on grooming on Day 1 [1] | change in vivo at 3 mg/kg ([2]; 20 min, pre-test time 20 min) [%] | pattern of the dose-response function for bouts of nose touching [2] | IC50 (hERG channel; Table 1.3B) | inhibition at 5 min, 10 µM (hERG channel) [%] | inhibition at 10 min, 10 µM (CYP2D6) [%] | change in vivo at 10 mg/kg ([2]; 20 min, pre-test time 20 min) [%] | change in vivo at 30 mg/kg ([2]; 20 min, pre-test time 20 min) [%] | also measured
FC(F)c1ccc(C(F)(F)CN2CCC(Nc3ncnc4[nH]ccc34)CC2)cc1 [C-179^A′] | no tachyphylaxis developed; also recorded: tachyphylaxis was not observed | 8 | significantly reduced grooming; also recorded: markedly reduced excessive self-grooming | 5 | significantly reduced grooming | comparable to the level in the vehicle-treated group | significantly reduced grooming | significantly reduced grooming | 164 | inverted U-shaped dose-response function |  |  |  |  |  | IC50 (hERG channel; Table 1.3A): 1.4 µM; magnitude of the reduction in self-grooming (Sapap3 knockout mice; 1 mg/kg IP, pre-spray): 43.6%; magnitude of the reduction in self-grooming (Sapap3 knockout mice; 3 mg/kg IP, pre-spray): 80.5%; magnitude of the reduction in self-grooming (Sapap3 knockout mice; 10 mg/kg IP, pre-spray): 91.7%; reductions in self-grooming (Sapap3 knockout mice; 1, 3 and 10 mg/kg IP, post-spray): 66.9% to 77.6%; significantly reduced grooming through Day (Sapap3 knockout mice; single dose 0.32 mg/kg IP on Day 1): 5 days; significantly reduced grooming through Day (Sapap3 knockout mice; single dose 0.56 mg/kg IP on Day 1): 5 days; sustained efficacy lasting for (Sapap3 knockout mice; single dose of 3 mg/kg IP): 1 week; change in vivo at 0.3 mg/kg ([2]; 0.25 h, pre-test time 15 min): -12%; change in vivo at 1 mg/kg ([2]; 0.25 h, pre-test time 15 min): 64.7%; change in vivo at 30 mg/kg ([2]; 0.25 h, pre-test time 15 min): 28%; change in vivo at 0.3 mg/kg ([2]; 20 min, pre-test time 20 min): 51.7%; change in vivo at 1 mg/kg ([2]; 20 min, pre-test time 20 min): 139%
Cc1ccc(COC(=O)N2CC[C@H](CNc3nccn4cnnc34)C(F)(F)C2)cc1 [E1-1.2^B′] |  |  | markedly reduced excessive self-grooming |  |  |  |  |  |  | dose-dependent increases | 40 µM | 17 | 14 |  |  | magnitude of the reduction in self-grooming (Sapap3 knockout mice; 3 mg/kg IP, 20 min postdose, pre- and post-spray): 70%-80%; magnitude of the reduction in self-grooming (Sapap3 knockout mice; 10 mg/kg IP, 20 min postdose, pre- and post-spray): > 90%; magnitude of the reduction in self-grooming (Sapap3 knockout mice; 30 mg/kg IP, 20 min postdose, pre- and post-spray): > 90%; change in vivo at 0.3 mg/kg ([2]; 10 min, pre-test time 10 min): 16.1%; change in vivo at 10 mg/kg ([2]; 10 min, pre-test time 10 min): 218%
Cc1ccc(COC(=O)N2CC[C@H](CNc3cnc(C)cn3)C(F)(F)C2)cc1 [E1-21.26^B′] | without tachyphylaxis | 5 | significantly reduced grooming |  |  |  |  | significantly reduced grooming | 141 | dose-dependent increases |  | 39 | 32 | 149 | 171 | effects lasting through Day after the fourth and final dose on Day 29 (Sapap3 knockout mice; 3 mg/kg IP on Days 1, 15, 22, 29): 40 days; effects lasting through Day after the fourth and final dose on Day 29 (Sapap3 knockout mice; 10 mg/kg IP on Days 1, 15, 22, 29): 43 days; significant reduction in grooming wore off by Day (Sapap3 knockout mice; first dose of 3 mg/kg IP): 8 days
Cc1ccc(COC(=O)N2CC[C@H](CNc3ncccn3)C(F)(F)C2)cc1 [E1-22.2^B′] |  | 22 | significantly reduced grooming | 19 | significantly reduced grooming | comparable to the level in the vehicle-treated group | significantly reduced grooming | significantly reduced grooming | 163 |  | > 10 µM and 17 µM |  |  | 115 | 98.9 | IC50 (CYP2D6; Table 1.4B): > 50 µM

From patent US11752155B2, “Treatment of autism spectrum disorders, obsessive-compulsive disorder and anxiety disorders” (Rugen Holdings (Cayman) Limited, priority 2016, dated 2023)
